Experimental data reported in ChEMBL document CHEMBL1201862, “PubChem BioAssay data set” (2004).
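How tested: cells in 96-well plates exposed to compound for 48 hours at five concentrations. GI50 is the concentration that inhibits growth by half.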 Activity calls are given as the source filed them. No stated cut-off is given here; in the data, active = GI50 up to about 1.1 µM and inactive = higher.

Assays:
Experiment in all cases: DTP human tumour cell line panel, 48 h
NCI-H522 = tested on: NCI-H522
UACC-62 = tested on: UACC-62
SF-295 = tested on: SF-295
HOP-62 = tested on: HOP-62
HCT-116 = tested on: HCT-116
HOP-92 = tested on: HOP-92
CAKI-1 = tested on: CAKI-1
EKVX = tested on: EKVX
Malme-3M = tested on: Malme-3M
RXF 393 = tested on: RXF 393
RPMI-8226 = tested on: RPMI-8226
NCI-H226 = tested on: NCI-H226
UACC-257 = tested on: UACC-257
SF-268 = tested on: SF-268
A498 = tested on: A498
UO-31 = tested on: UO-31
SNB-75 = tested on: SNB-75
SK-MEL-2 = tested on: SK-MEL-2
SN12C = tested on: SN12C
OVCAR-3 = tested on: OVCAR-3
PC-3 = tested on: PC-3
MCF7 = tested on: MCF7
SK-OV-3 = tested on: SK-OV-3
Hs-578T = tested on: Hs-578T
U-251 = tested on: U-251
COLO 205 = tested on: COLO 205
SW-620 = tested on: SW-620
SK-MEL-28 = tested on: SK-MEL-28
786-0 = tested on: 786-0
SNB-19 = tested on: SNB-19
T47D = tested on: T47D
A549 = tested on: A549
IGROV-1 = tested on: IGROV-1
MDA-MB-231 = tested on: MDA-MB-231
K562 = tested on: K562
M14 = tested on: M14
OVCAR-5 = tested on: OVCAR-5
HCC 2998 = tested on: HCC 2998
TK-10 = tested on: TK-10
MOLT-4 = tested on: MOLT-4
OVCAR-8 = tested on: OVCAR-8
LOX IMVI = tested on: LOX IMVI
OVCAR-4 = tested on: OVCAR-4
HL-60 = tested on: HL-60
HCT-15 = tested on: HCT-15
NCI-H23 = tested on: NCI-H23
NCI-H460 = tested on: NCI-H460
CCRF-CEM = tested on: CCRF-CEM
MDA-MB-435 = tested on: MDA-MB-435
NCI/ADR-RES = tested on: NCI/ADR-RES
DU-145 = tested on: DU-145
SK-MEL-5 = tested on: SK-MEL-5
MDA-N = tested on: MDA-N
BT-549 = tested on: BT-549
KM12 = tested on: KM12
ACHN = tested on: ACHN
HT-29 = tested on: HT-29

Measured: GI50

COC(=O)/C=C\C(C#N)(C#N)/N=C/c1cccs1
inactive: UACC-62 11.6 µM | SF-295 18.8 µM | HOP-62 17.6 µM | HCT-116 8.69 µM | HOP-92 1.84 µM | CAKI-1 1.88 µM | EKVX 9.77 µM | Malme-3M 2.65 µM | RXF 393 2.51 µM | RPMI-8226 2.11 µM | NCI-H226 7.53 µM | UACC-257 14.4 µM | SF-268 15 µM | A498 19.9 µM | UO-31 2.26 µM | SNB-75 15.3 µM | SK-MEL-2 18.5 µM | SN12C 14.7 µM | OVCAR-3 11.1 µM | PC-3 13.1 µM | MCF7 2.01 µM | SK-OV-3 19 µM | Hs-578T 24.8 µM | U-251 16.6 µM | COLO 205 3.68 µM | SW-620 1.87 µM | SK-MEL-28 8.83 µM | 786-0 14.2 µM | SNB-19 30.8 µM | T47D 2.93 µM | A549 22.6 µM | IGROV-1 15.7 µM | MDA-MB-231 1.46 µM | K562 3.95 µM | M14 4.35 µM | OVCAR-5 5.92 µM | HCC 2998 18.9 µM | TK-10 1.76 µM | OVCAR-8 3.76 µM | LOX IMVI 2.34 µM | OVCAR-4 5.82 µM | HL-60 1.63 µM | NCI-H23 9.14 µM | NCI-H460 19.6 µM | MDA-MB-435 5.16 µM | NCI/ADR-RES 18.4 µM | DU-145 10.7 µM | MDA-N 8.22 µM | BT-549 7.89 µM | KM12 17.2 µM | ACHN 1.84 µM | HT-29 2 µM
2.13 µM: HCT-15
active: NCI-H522 0.783 µM | MOLT-4 0.982 µM | CCRF-CEM 0.533 µM | SK-MEL-5 0.813 µM
